Results from patent US10344026B2, “Compositions and methods of targeting mutant K-ras” (NANTBIO, INC., priority 2017, dated 2019).

Assays:
Assay type in all cases: cell-based
K-Ras G12D = biological target: T1, K-Ras G12D (Homo sapiens, UniProt P01116, G12D); experiment: G-LISA Ras activation, 293H cells transfected with G12D mutant; settings: compound 1 hour
T1 construct: expressed in transfected cells; host or cells: 293H cells
Procedure, shortened: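 G-LISA Ras-GTP readout; 293H transfectants treated 1 h with 3.125-25 μM compound, EGF pulse (100 ng/ml, 2 min) for wild-type only.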

[1] = test system: Ishikawa (K-Ras wild type cell line); experiment: Viability assay (CellTiterBlue, 72 hr) Ishikawa; settings: Homo sapiens, GI50, CellTiterBlue, Ishikawa K-Ras wild-type
Procedure, shortened: (§1)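 GI50 calculation uses a window set by DMSO-treated wells (100% viability) and 100 uM tamoxifen (0%). Cells (1000/well) sit 18 hr at 37 °C, receive compound for 72 hr in 0.5% DMSO, then get CellTiterBlue for 3 hr before reading at Ex550/Em590.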

[2] = test system: U87-MG (K-Ras wild type cell line); experiment: Viability assay (CellTiterBlue, 72 hr) U87-MG; settings: Homo sapiens, U-87 MG, GI50, CellTiterBlue, U87-MG K-Ras wild-type
Procedure, shortened: as §1

[3] = test system: HCC827 (K-Ras wild type cell line); experiment: Viability assay (CellTiterBlue, 72 hr) HCC827; settings: Homo sapiens, GI50, CellTiterBlue, HCC827 K-Ras wild-type
Procedure, shortened: as §1

[4] = test system: A375 (K-Ras wild type cell line); experiment: Viability assay (CellTiterBlue, 72 hr) A375; settings: Homo sapiens, A-375, GI50, CellTiterBlue
Procedure: Viability assays were performed on exemplary compounds and Table 2 below lists exemplary results for selected compounds tested on K-Ras wild type cell lines (Ishikawa, U87-MG, HCC827, and A375) and various K-Ras mutant cell lines (Panc1-G12D; Panc10.05-G12D; HCT116-G31D). Results are expressed in μM and corresponding structures are shown in FIGS. 2A-2G and Examples 1-152, above.
Cells are counted and seeded at 1000 cells/36 ul medium/well into 384-well microplates. Cells are returned to 37° C. CO2 incubator for 18 hr. Drug is made as 200× in DMSO and diluted into medium to 10×. To each well is added 4 ul 10× drug, and plates are returned to the incubator. Final assay DMSO concentration is 0.5%. After 72 hr, 8 ul CellTiterBlue (Promega) is added to each well. After 3 hr, fluorescence (Ex550/Em590) is determined on the Victor Plate Reader (Perkin Elmer). Assay range is determined by DMSO control (100% viability) and 100 uM tamoxifen (0% viability). GI50 values are calculated using Graphpad Prism.

Panc1-G12D = experiment: Viability assay (CellTiterBlue, 72 hr) Panc1; settings: Homo sapiens, PANC-1, GI50, CellTiterBlue, Panc1 K-Ras G12D, read-out: 72 hr Cell Viability Panc1 (G12D)
Procedure, shortened: as §1

Panc10.05-G12D = experiment: Viability assay (CellTiterBlue, 72 hr) Panc10.05; settings: Homo sapiens, Panc1005, GI50, CellTiterBlue, Panc10.05 K-Ras G12D, read-out: 72 hr Cell Viability Panc10.05 (G12D)
Procedure, shortened: as §1

HCT116-G31D = experiment: Viability assay (CellTiterBlue, 72 hr) HCT116; settings: Homo sapiens, HCT-116, GI50, CellTiterBlue, HCT116 K-Ras G13D, read-out: 72 hr Cell Viability HCT116 (G13D)
Procedure, shortened: as §1

[5] = test system: phospho-ERK in HCC827 (Wild-type); experiment: In-Cell Western phospho-ERK, HCC827; settings: Homo sapiens, 1 h; HCC827, one hour treatment; read-out: In-Cell Western HCC827 (Wild-type) Erk (P)
Procedure: (§2) In-cell phosphorylation assays for Erk and Akt were performed on several of the compounds and exemplary results are shown in Table 3 below using HCC827 and A375 cell lines for wild type K-Ras and Panc1 and Panc10.05 cell lines for G12D K-Ras mutants. Results are expressed in μM and corresponding structures are shown in FIGS. 2A-2G and Examples 1-152, above.
(§3) Cells are seeded in complete medium into black sided, clear-bottom 384-well microplates at 3000 cells/[…]/well. Plates are returned to 37° C. CO2 incubator for 18 hr. Drug is made as 200× in DMSO and diluted into medium to 10×. To each well is added 4 ul 10× test article or controls, and plates are returned to the incubator. Final assay DMSO concentration is 0.5%. After one hour, cells are fixed in formaldehyde, rinsed & permeabilized with triton X-100, and blocked with BSA/Goat serum blocking solution. Primary phospho-Akt and phospho-ERK antibodies are added and plates are incubated overnight at 4° C. Plates are rinsed with Tween-20 wash buffer and secondary antibody (Goat anti-rabbit, Thermofisher) is added. After 2 hours, plates are rinsed in Tween-20 wash buffer, and then PBS. Plates are imaged on the Celigo (Nexcelom) and cellular fluorescence is quantitated. Full inhibition of phospho-Akt is achieved with 1 uM BEZ235 (Sellekchem), while full inhibition of phospho-ERK is achieved with 1 uM MEK Inhibitor II Calbiochem). EC50 values are calculated using Graphpad Prism.

[6] = test system: phospho-ERK in A375 (Wild-type); experiment: In-Cell Western phospho-ERK, A375; settings: Homo sapiens, A-375, 1 h; A375, one hour treatment; read-out: In-Cell Western A375 (Wild-type) Erk (P)
Procedure: as §2, §3

[7] = test system: phospho-Akt in A375 (Wild-type); experiment: In-Cell Western phospho-Akt, A375; settings: Homo sapiens, A-375, 1 h; A375, one hour treatment; read-out: In-Cell Western A375 (Wild-type) Akt (P)
Procedure: as §2, §3

[8] = test system: phospho-ERK in Panc1 (G12D); experiment: In-Cell Western phospho-ERK, Panc1; settings: Homo sapiens, PANC-1, 1 h; Panc1, one hour treatment; read-out: In-Cell Western Panc1 (G12D) Erk (P)
Procedure, shortened: (§4)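 3000 cells/well, 18 hr pre-incubation; 1 hr compound exposure, 0.5% DMSO final. Formaldehyde fix, Triton permeabilization, primary Ab overnight 4° C, secondary 2 hr. Fluorescence imaging; EC50.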

[9] = test system: phospho-Akt in Panc1 (G12D); experiment: In-Cell Western phospho-Akt, Panc1; settings: Homo sapiens, PANC-1, 1 h; Panc1, one hour treatment; read-out: In-Cell Western Panc1 (G12D) Akt (P)
Procedure, shortened: as §4

[10] = test system: phospho-ERK in Panc10.05 (G12D); experiment: In-Cell Western phospho-ERK, Panc10.05; settings: Homo sapiens, Panc1005, 1 h; Panc10.05, one hour treatment; read-out: In-Cell Western Panc10.05 (G12D) Erk (P)
Procedure, shortened: as §4

[11] = test system: phospho-Akt in Panc10.05 (G12D); experiment: In-Cell Western phospho-Akt, Panc10.05; settings: Homo sapiens, Panc1005, 1 h; Panc10.05, one hour treatment; read-out: In-Cell Western Panc10.05 (G12D) Akt (P)
Procedure: as §2, §3

T1 sequence (P01116 whole entry G12D): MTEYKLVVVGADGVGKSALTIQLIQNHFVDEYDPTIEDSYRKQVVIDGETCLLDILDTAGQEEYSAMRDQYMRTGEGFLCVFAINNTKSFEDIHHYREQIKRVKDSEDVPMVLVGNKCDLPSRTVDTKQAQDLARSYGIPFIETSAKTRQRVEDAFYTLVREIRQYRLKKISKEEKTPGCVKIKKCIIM

Row | SMILES | IC50 (K-Ras G12D) [µM] | IC50 [1] [µM] | IC50 [2] [µM] | IC50 [3] [µM] | IC50 [4] [µM] | IC50 (Panc1-G12D) [µM] | IC50 (Panc10.05-G12D) [µM] | IC50 (HCT116-G31D) [µM] | EC50 [5] [µM] | EC50 [6] [µM] | EC50 [7] [µM] | EC50 [8] [µM] | EC50 [9] [µM] | EC50 [10] [µM] | EC50 [11] [µM]
1 | CC(C)c1cc(C(=O)Nc2nc(-c3ccc4c(c3)CCC(=O)N4)cs2)n(C)n1 [Compound 44, 3-isopropyl-1-methyl-N-(4-(2-oxo-1,2,3,4-tetrahydroquinolin-6-yl)thiazol-2-yl)-1H-pyrazole-5-carboxamide] | 4 | > 25 | > 25 | > 25 | > 25 | > 25 | 2 | > 25 | > 25 | > 25 | > 25 | > 25 | > 25 | > 25 | > 25
2 | CCn1nc(C2CC2)cc1C(=O)Nc1nc(-c2ccc3c(c2)CCC(=O)N3)cs1 [Compound 45, 3-cyclopropyl-1-ethyl-N-(4-(2-oxo-1,2,3,4-tetrahydroquinolin-6-yl)thiazol-2-yl)-1H-pyrazole-5-carboxamide] | 8.8 | > 25 | > 25 | > 25 | > 25 | > 25 | 3 | > 25 | > 25 | > 25 | > 25 | > 25 | > 25 | 6 | 11
3 | CCn1nccc1C(=O)Nc1nc(-c2ccc3c(c2)CCC(=O)N3)cs1 [Compound 46, 1-ethyl-N-(4-(2-oxo-1,2,3,4-tetrahydroquinolin-6-yl)thiazol-2-yl)-1H-pyrazole-5-carboxamide] | 22.5 | > 25 | > 25 | > 25 | > 25 | > 25 | 11 | > 25 | > 25 | > 25 | > 25 | > 25 | > 25 | 11 | 13
4 | Cn1nc(-c2ccccc2)cc1C(=O)Nc1nc(-c2ccc3c(c2)CCC(=O)N3)cs1 [Compound 48, 1-methyl-N-(4-(2-oxo-1,2,3,4-tetrahydroquinolin-6-yl)thiazol-2-yl)-3-phenyl-1H-pyrazole-5-carboxamide] | – | > 25 | > 25 | > 25 | > 25 | > 25 | > 25 | > 25 | > 25 | > 25 | > 25 | > 25 | > 25 | > 25 | > 25
5 | Cn1nc(C(F)(F)F)cc1C(=O)Nc1nc(-c2ccc3c(c2)CCC(=O)N3)cs1 [Compound 50, 1-methyl-N-(4-(2-oxo-1,2,3,4-tetrahydroquinolin-6-yl)thiazol-2-yl)-3-(trifluoromethyl)-1H-pyrazole-5-carboxamide] | – | > 25 | > 25 | > 25 | > 25 | > 25 | > 25 | > 25 | 13 | > 25 | > 25 | > 25 | > 25 | > 25 | > 25
6 | Cc1nc(C)c(C(=O)Nc2nc(-c3ccc4c(c3)CCC(=O)N4Cc3cccnc3C#N)cs2)o1 [Compound 94, N-(4-(1-((2-cyanopyridin-3-yl)methyl)-2-oxo-1,2,3,4-tetrahydroquinolin-6-yl)thiazol-2-yl)-2,4-dimethyloxazole-5-carboxamide] | – | > 25 | > 25 | > 25 | > 25 | > 25 | > 25 | > 25 | > 25 | > 25 | > 25 | > 25 | > 25 | > 25 | > 25
7 | Cc1nc(C)c(C(=O)Nc2nc(-c3ccc4c(c3)CCC(=O)N4CCCN(C)C)cs2)o1 [Compound 98, N-(4-(1-(3-(dimethylamino)propyl)-2-oxo-1,2,3,4-tetrahydroquinolin-6-yl)thiazol-2-yl)-2,4-dimethyloxazole-5-carboxamide] | – | 11 | > 25 | 5 | 9 | 13 | > 25 | > 25 | > 25 | > 25 | > 25 | > 25 | > 25 | > 25 | > 25
8 | CCc1nc(C)c(C(=O)Nc2nc(-c3ccc4c(c3)CCC(=O)N4Cc3cncnc3)cs2)o1 [Compound 104, 2-ethyl-4-methyl-N-(4-(2-oxo-1-(pyrimidin-5-ylmethyl)-1,2,3,4-tetrahydroquinolin-6-yl)thiazol-2-yl)oxazole-5-carboxamide] | – | > 25 | > 25 | > 25 | 6 | 22 | 17 | 5 | > 25 | > 25 | > 25 | > 25 | > 25 | > 25 | > 25
